Laboratory results from patent US10899793B2, “Melanocortin ligands and methods of use thereof” (priority 2016, dated 2021).
Where two headings read alike, the source gives them in different places. Square brackets hold non-standard residues; d marks the D form. Peptide text beside a SMILES is read from it. dPhe(4-I) = N[C@H](Cc1ccc(I)cc1)C(=O)O; d2Nal = N[C@H](Cc1ccc2ccccc2c1)C(=O)O; Bta = N[C@@H](Cc1csc2ccccc12)C(=O)O; Tic = O=C(O)[C@@H]1Cc2ccccc2CN1; Nle = CCCC[C@H](N)C(=O)O

Assays:
mMC4R [1] = biological target: T1, mMC4R (Mus musculus, UniProt P56450); conditions: for mMC4R pA2: Table 5
mMC5R = mMC5R (Mus musculus, UniProt P41149); assay: AlphaScreen cAMP agonist assay at mMC5R
mMC3R [2] = biological target: T2, mMC3R (Mus musculus, UniProt P33033); conditions: Schild analysis; for mMC3R pA2: Table 5; for mMC3R Antagonist pA2 ± SEM: Table 1, pA2 = -Log(Ki), Full Agonist = full dose-response, No Activity = no shift in EC50
mMC1R = mMC1R (Mus musculus, UniProt Q01727); assay: AlphaScreen cAMP agonist assay at mMC1R; conditions: for mMC1R percent of the NDP-MSH maximal positive control: Table 2, @ 100 μM
mMC3R [3] = biological target: T2, mMC3R; assay: AlphaScreen cAMP agonist assay at mMC3R; conditions: for mMC3R Agonist, percent of the NDP-MSH maximal positive control: Table 1, @ 100 μM
mMC4R [4] = biological target: T1, mMC4R; assay: AlphaScreen cAMP agonist assay at mMC4R; conditions: for activation at 100 µM: read-out: mMC4R Agonist, percent of the NDP-MSH maximal positive control
mMC3R [5] = biological target: T2, mMC3R; assay: 125I-NDP-MSH competitive binding assay at mMC3R; set-up: expressed in transfected cells; conditions: for mMC3R (IC50) Fold Diff.: Table 3, vs Ac-His-DPhe-Arg-Trp-NH2, negative = more potent than control
Procedure: A typical experiment utilized a 12-well format. […] Pharm. Des.
The plates were incubated at 37° C. with 5% CO2 for 1 hour. Post incubation, the media was aspirated, each well was washed with 500 μL assay media, and cells were lysed with 500 μL of 0.1 M NaOH and 500 μL of 1% Triton x-100.
Following a 10-15 minute room temperature incubation, the cell lysate mixture was transferred to 12×75 mm polystyrene tubes and the radioactivity was quantified using a WIZARD^2 Automatic Gamma Counter (Perkin-Elmer). […] GraphPad, Inc), and dose-response curves in addition to the corresponding IC50 values were calculated by a non-linear regression method. Each reported value represents the mean and standard error of the mean (SEM) of, at least, two independent experiments each containing two experimental replicates.
Note each reported value represents the mean and standard error of the mean (SEM) of at least two independent experiments containing two experimental replicates.

mMC4R [6] = biological target: T1, mMC4R; assay: 125I-NDP-MSH competitive binding assay at mMC4R; conditions: Table 3; vs Ac-His-DPhe-Arg-Trp-NH2; negative = more potent than control
mMC4R [7] = biological target: T1, mMC4R; set-up: expressed in transfected cells; conditions: Joseph et al. 2003; read-out: reported stimulation potency at the mMC4R; cited from earlier work
mMC3R [8] = biological target: T2, mMC3R; set-up: expressed in transfected cells; conditions: Joseph et al. 2003; read-out: reported stimulation potency at the mMC3R; cited from earlier work

Sequence of mMC5R (P41149 whole entry): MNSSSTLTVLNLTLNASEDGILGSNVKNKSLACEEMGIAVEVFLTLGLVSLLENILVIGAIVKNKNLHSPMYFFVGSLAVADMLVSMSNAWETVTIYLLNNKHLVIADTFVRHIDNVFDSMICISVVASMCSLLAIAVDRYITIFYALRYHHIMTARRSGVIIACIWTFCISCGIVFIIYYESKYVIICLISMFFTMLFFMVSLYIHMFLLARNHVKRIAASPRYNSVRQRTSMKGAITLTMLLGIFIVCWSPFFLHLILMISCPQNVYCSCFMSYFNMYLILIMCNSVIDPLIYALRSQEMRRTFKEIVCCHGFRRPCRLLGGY
T1 sequence (P56450 whole entry): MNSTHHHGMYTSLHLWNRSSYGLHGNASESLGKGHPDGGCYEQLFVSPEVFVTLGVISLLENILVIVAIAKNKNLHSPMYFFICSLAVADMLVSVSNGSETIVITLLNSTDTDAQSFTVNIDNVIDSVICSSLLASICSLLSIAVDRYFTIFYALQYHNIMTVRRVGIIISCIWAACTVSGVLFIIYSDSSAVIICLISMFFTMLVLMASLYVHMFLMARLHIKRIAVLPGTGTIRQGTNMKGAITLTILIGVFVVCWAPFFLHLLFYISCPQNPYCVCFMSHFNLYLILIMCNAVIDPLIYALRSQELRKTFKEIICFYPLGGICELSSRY
Sequence of mMC1R (Q01727 whole entry): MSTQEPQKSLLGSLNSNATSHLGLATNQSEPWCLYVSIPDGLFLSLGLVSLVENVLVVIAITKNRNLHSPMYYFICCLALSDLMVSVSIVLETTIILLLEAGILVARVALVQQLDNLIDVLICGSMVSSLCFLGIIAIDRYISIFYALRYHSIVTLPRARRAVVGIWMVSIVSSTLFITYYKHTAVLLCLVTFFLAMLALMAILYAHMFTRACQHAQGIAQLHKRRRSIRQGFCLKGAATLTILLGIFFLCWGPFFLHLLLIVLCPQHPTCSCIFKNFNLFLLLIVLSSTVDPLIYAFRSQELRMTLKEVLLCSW
T2 sequence (P33033 whole entry): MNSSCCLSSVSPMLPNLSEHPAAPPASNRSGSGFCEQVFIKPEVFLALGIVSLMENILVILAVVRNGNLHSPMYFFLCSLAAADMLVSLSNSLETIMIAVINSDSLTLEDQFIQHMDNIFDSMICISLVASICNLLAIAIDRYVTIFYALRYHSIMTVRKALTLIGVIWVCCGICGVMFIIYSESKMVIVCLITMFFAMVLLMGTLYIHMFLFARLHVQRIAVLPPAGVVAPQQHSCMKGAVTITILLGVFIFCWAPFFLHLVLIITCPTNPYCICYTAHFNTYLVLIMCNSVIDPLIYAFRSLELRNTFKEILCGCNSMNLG

Question: Which results are given for `CC(=O)N[C@H](Cc1c[nH]c2ccccc12)C(=O)N[C@H](CCCNC(=N)N)C(=O)N[C@@H](Cc1ccccc1)C(=O)N[C@H](Cc1c[nH]cn1)C(N)=O` [SKY5-121, Ac-DTrp-DArg-Phe-DHis-NH2] (Ac-[dW][dR]F[dH]-NH2)?
Answer: mMC4R pA2 (mMC4R [1]; Schild analysis): pA2 = No Activity; mMC5R percent of the NDP-MSH maximal positive control (mMC5R; Table 5, @ 100 μM): 29% @ 100 μM; mMC3R pA2 (mMC3R [2]): pA2 = No Activity; EC50 (mMC1R): > 100000 nM; EC50 (mMC3R [3]): > 100000 nM; EC50 (mMC4R [4]): > 100000 nM

Question: Which results are given for Ac-SYSMEHRFWGKPV-NH2 [SKY2-125-5]?
Answer: EC50 (mMC5R): 2600 nM; EC50 (mMC1R): 3000 nM; EC50 (mMC3R [3]): 5800 nM; fold decreased potency at the mMC3R relative to α-MSH (mMC3R [3]; Arg-Phe reverse analog vs parent): 45,000 fold; EC50 (mMC4R [4]): 44000 nM

Question: What does the source list for `CC(=O)N[C@@H](CCCNC(=N)N)C(=O)N[C@@H](CCCNC(=N)N)C(=O)N[C@H](Cc1ccc(I)cc1)C(=O)N[C@@H](Cc1ccc(-c2ccccc2)cc1)C(N)=O` [SKY4-48-2, Ac-Arg-Arg-(pI)DPhe-Bip-NH2]?
Answer: antagonist pA2 at the mMC4R (mMC4R [1]): 5.8; mMC1R percent of the NDP-MSH maximal positive control (mMC1R): 44% @ 100 μM; mMC3R Agonist, percent of the NDP-MSH maximal positive control (mMC3R [3]): 45% @ 100 μM; activation at 100 µM (mMC4R [4]): 32%

Question: What does the source list for `CC(=O)N[C@@H](Cc1c[nH]cn1)C(=O)N[C@@H](CCCNC(=N)N)C(=O)N[C@H](Cc1ccccc1)C(=O)N[C@@H](Cc1c[nH]c2ccccc12)C(N)=O` [SKY5-146-6, Ac-His-Arg-DPhe-Trp-NH2] (Ac-HR[dF]W-NH2)?
Answer: mMC4R pA2 (mMC4R [1]; Schild analysis): pA2 = No Activity; EC50 (mMC5R): 21000 nM; agonist activity at the mMC5R in words (mMC5R; up to 100 μM): micromolar agonists; mMC3R pA2 (mMC3R [2]): Full Agonist; EC50 (mMC1R): 1300 nM; agonist / inverse agonist activity at the mMC1R in words (mMC1R; up to 100 μM): micromolar agonists; EC50 (mMC3R [3]): 21000 nM; agonist activity at the mMC3R in words (mMC3R [3]; up to 100 μM): micromolar agonists; EC50 (mMC4R [4]): > 100000 nM; agonist activity at the mMC4R in words (mMC4R [4]; up to 100 μM): no agonist activity

Question: Which results are given for `CC(=O)N[C@H](Cc1ccc2ccccc2c1)C(=O)N[C@@H](CCCNC(=N)N)C(=O)N[C@H](Cc1ccc(I)cc1)C(=O)N1Cc2ccccc2C[C@H]1C(N)=O` [SKY6-24-3, Ac-DNal(2′)-Arg-(pI)DPhe-Tic-NH2] (Ac-[d2Nal]R[dPhe(4-I)][Tic]-NH2)?
Answer: mMC3R Antagonist pA2 ± SEM (mMC3R [2]): Full Agonist; IC50 (mMC3R [5]): 440 nM; fold improvement of binding IC50 at the mMC3R compared to SKY4-48-1 (mMC3R [5]): 120 fold; mMC3R (IC50) Fold Diff. (mMC3R [5]): -120; mMC4R (IC50) Fold Diff. (mMC4R [6]): -3; activation at 100 µM (mMC4R [4]): 32%

Question: Which results are given for `CC(=O)N[C@@H](Cc1ccccc1)C(=O)N[C@@H](CCCNC(=N)N)C(=O)N[C@H](Cc1ccc(I)cc1)C(=O)N[C@@H](Cc1csc2ccccc12)C(N)=O` [SKY4-48-15, Ac-Phe-Arg-(pI)DPhe-3Bal-NH2] (Ac-FR[dPhe(4-I)][Bta]-NH2)?
Answer: mMC3R Antagonist pA2 ± SEM (mMC3R [2]): Full Agonist; fold improvement of binding IC50 at the mMC3R compared to SKY4-48-1 (mMC3R [5]): 9 fold; mMC3R (IC50) Fold Diff. (mMC3R [5]): -9; mMC4R (IC50) Fold Diff. (mMC4R [6]): 7

Question: What does the source list for `CC(=O)N[C@@H](Cc1ccccc1)C(=O)N[C@@H](CCCNC(=N)N)C(=O)N[C@H](Cc1ccc(I)cc1)C(=O)N1Cc2ccccc2C[C@H]1C(N)=O` [SKY4-48-23, Ac-Phe-Arg-(pI)DPhe-Tic-NH2] (Ac-FR[dPhe(4-I)][Tic]-NH2)?
Answer: mMC3R Antagonist pA2 ± SEM (mMC3R [2]): Full Agonist; mMC3R (IC50) Fold Diff. (mMC3R [5]): -20; mMC4R (IC50) Fold Diff. (mMC4R [6]): 1

Question: For `CCCC[C@H](NC(=O)[C@H](CO)NC(=O)[C@H](Cc1ccc(O)cc1)NC(=O)[C@H](CO)NC(C)=O)C(=O)N[C@@H](CCC(=O)O)C(=O)N[C@@H](Cc1c[nH]cn1)C(=O)N[C@@H](CCCNC(=N)N)C(=O)N[C@H](Cc1ccccc1)C(=O)N[C@@H](Cc1c[nH]c2ccccc12)C(=O)NCC(=O)N[C@@H](CCCCN)C(=O)N1CCC[C@H]1C(=O)N[C@H](C(N)=O)C(C)C` [SKY2-125-3, Ac-Ser-Tyr-Ser-Nle-Glu-His-Arg-DPhe-Trp-Gly-Lys-Pro-Val-NH2] (Ac-SYS[Nle]EHR[dF]WGKPV-NH2), which EC50 (mMC5R) is on record?
Answer: 1600 nM

Question: What about the EC50 (mMC1R) of the same compound?
Answer: 380 ± 70 nM

Question: And the EC50 (mMC3R [3])?
Answer: 1800 nM

Question: And the EC50 (mMC4R [4])?
Answer: 9500 nM

Question: With “Ac-Ser-Tyr-Ser-Nle-Glu-His-Arg-Phe-Phe-Gly-Lys-Pro-Val-NH2 (Ac-SYS[Nle]EHRFFGKPV-NH2; SMILES CCCC[C@H](NC(=O)[C@H](CO)NC(=O)[C@H](Cc1ccc(O)cc1)NC(=O)[C@H](CO)NC(C)=O)C(=O)N[C@@H](CCC(=O)O)C(=O)N[C@@H](Cc1c[nH]cn1)C(=O)N[C@@H](CCCNC(=N)N)C(=O)N[C@@H](Cc1ccccc1)C(=O)N[C@@H](Cc1ccccc1)C(=O)NCC(=O)N[C@@H](CCCCN)C(=O)N1CCC[C@H]1C(=O)N[C@H](C(N)=O)C(C)C) [chimeric NDP-MSH/AGRP peptide]” as the compound, how does the EC50 (mMC4R [7]) read?
Answer: 930 nM

Question: And the EC50 (mMC3R [8])?
Answer: 480 nM

Question: With `CC(=O)N[C@@H](CCCNC(=N)N)C(=O)N[C@@H](CCCNC(=N)N)C(=O)N[C@H](Cc1ccc(I)cc1)C(=O)N[C@@H](Cc1ccccc1)C(N)=O` [SKY4-48-26, Ac-Arg-Arg-(pI)DPhe-Phe-NH2] as the compound, how does the “mMC3R Antagonist pA2 ± SEM” value (mMC3R [2]) read?
Answer: Full Agonist

Question: And the “mMC3R (IC50) Fold Diff.” value (mMC3R [5])?
Answer: -8

Question: What about the “mMC4R (IC50) Fold Diff.” value (mMC4R [6]) of the same compound?
Answer: 4

Question: With `CC(=O)N[C@@H](CCCNC(=N)N)C(=O)N[C@@H](CCCNC(=N)N)C(=O)N[C@H](Cc1ccc(I)cc1)C(=O)N[C@@H](Cc1csc2ccccc12)C(N)=O` [SKY4-48-10, Ac-Arg-Arg-(pI)DPhe-3Bal-NH2] as the compound, how does the “mMC3R Antagonist pA2 ± SEM” value (mMC3R [2]) read?
Answer: Full Agonist

Question: And the “mMC3R (IC50) Fold Diff.” value (mMC3R [5])?
Answer: -52

Question: What about the “mMC4R (IC50) Fold Diff.” value (mMC4R [6]) of the same compound?
Answer: 1

Question: What about the activation at 100 µM (mMC4R [4]) of the same compound?
Answer: 24%

Question: Which “mMC3R Antagonist pA2 ± SEM” value (mMC3R [2]) does the source give for `CC(=O)N[C@@H](Cc1c[nH]cn1)C(=O)N[C@@H](CCCNC(=N)N)C(=O)N[C@H](Cc1ccc(I)cc1)C(=O)N[C@@H](Cc1csc2ccccc12)C(N)=O` [SKY4-48-11, Ac-His-Arg-(pI)DPhe-3Bal-NH2] (Ac-HR[dPhe(4-I)][Bta]-NH2) here?
Answer: Full Agonist

Question: And the “mMC3R (IC50) Fold Diff.” value (mMC3R [5])?
Answer: -15

Question: And the “mMC4R (IC50) Fold Diff.” value (mMC4R [6])?
Answer: 2

Question: What about the activation at 100 µM (mMC4R [4]) of the same compound?
Answer: 47%

Question: For “Ac-3Bal-Arg-(pI)DPhe-DNal(2′)-NH2 (Ac-[Bta]R[dPhe(4-I)][d2Nal]-NH2) [SKY4-48-45]”, which “mMC4R Antagonist pA2 ± SEM” value (mMC4R [1]; Table 1, Schild analysis, pA2 = -Log(Ki)) is on record?
Answer: No Activity

Question: What about the “percent of the NDP-MSH maximal positive control, Table 2” value (mMC5R; Table 2, @ 100 μM) of the same compound?
Answer: 41% @ 100 μM

Question: What about the “mMC3R Antagonist pA2 ± SEM” value (mMC3R [2]) of the same compound?
Answer: No Activity

Question: And the “mMC1R percent of the NDP-MSH maximal positive control” value (mMC1R)?
Answer: 36% @ 100 μM

Question: And the “mMC3R Agonist, percent of the NDP-MSH maximal positive control” value (mMC3R [3])?
Answer: 34% @ 100 μM

Question: And the “mMC4R Agonist, percent of the NDP-MSH maximal positive control” value (mMC4R [4]; Table 1, @ 100 μM)?
Answer: 38% @ 100 μM
